Values of other authors in patent publication US20220401509A1, “Composition For Improving Mental State, Production Method For Composition For Improving Mental State, And Use Of Fruit Of Eggplant For Improving Mental State” (SHINSHU UNIVERSITY, priority 2019, published 2022).

Key:
adult individuals = details: according to the "Foods with Function Claims" in Japan
[1] = tested on: spontaneously hypertensive rats (SHRs); details: purified, single oral dose to SHR

**Q.** Which “effective dose for antihypertensive effect in adult individuals” value (adult individuals) does the source give for O=C(/C=C/c1ccc(O)c(O)c1)O[C@@H]1C[C@](O)(C(=O)O)C[C@@H](O)[C@H]1O [CA, chlorogenic acid] here?
**A.** 271 mg/day

**Q.** For NCCCC(=O)O [GABA, γ-aminobutyric acid], which “effective dose for antihypertensive effect in adult individuals” value (adult individuals) is on record?
**A.** 12.3 mg/day

**Q.** Which antihypertensive effect [1] does the source give for CCCC(=O)OCC[N+](C)(C)C [butyrylcholine] here?
**A.** had an antihypertensive effect

**Q.** For CC(O)C(=O)OCC[N+](C)(C)C.[I-] (centres unmarked) [lactoylcholine], which antihypertensive effect [1] is on record?
**A.** had an antihypertensive effect

**Q.** With CCC(=O)OCC[N+](C)(C)C [propionylcholine] as the compound, how does the antihypertensive effect [1] read?
**A.** had an antihypertensive effect
